Assay results: US20180200261A1, “METHODS AND MATERIALS FOR TREATING CANCER” (Mayo Foundation for Medical Education and Research, priority 2015, published 2018)

Legend:
HeLa cells = assay: Immunofluorescence of ionizing radiation induced foci (IRIF); format: cell-based; details: 250 nM JQ1, irradiated
Description: FIGS. 1A-B. BET inhibitor affects DNA repair efficiency. (A and B) HeLa cells treated with (JQ1) or without (CK) 250 nM JQ1 were irradiated (2 Gy) and probed with the indicated antibodies at different time points.
To visualize ionizing radiation induced foci (IRIF), cells were cultured on coverslips and treated with 5 Gy ionizing radiation (IR) followed by recovery as indicated. Cells were then washed in PBS, incubated in 3% paraformaldehyde for 15 minutes, and permeabilized in 0.5% Triton solution for 5 minutes at room temperature. Samples were blocked with 5% goat serum and then incubated with primary antibodies for 30 minutes. Samples were washed three times and incubated with secondary antibodies for 30 minutes. Cells were then stained with DAPI to visualize nuclear DNA. The coverslips were mounted onto glass slides with anti-fade solution and visualized using a Nikon eclipse 80i fluorescence microscope. The following antibodies were used in immunofluorescence: rH2Ax (Millipore) and Rad51 (GeneTex).
To check the effect of BET inhibitor in the DNA repair pathway, the foci of rH2Ax and RAD51 were examined (FIG. 1). rH2Ax is the marker of damaged DNA. RAD51 is an enzyme involved in homology recombination. Both proteins can form foci at damaged DNA sites.

OVCAR10 cells = assay: PARP inhibitor sensitivity assay (colony formation), OVCAR10; format: cell-based; details: OVCAR10, JQ1 100 nM, OTX015 100 nM, i-BET-762 250 nM together with AZD2281 0-10 μM, 1 to 2 weeks, clones counted
Description: FIG. 3. […] OVCAR10 cells were plated in 6 well plates at a density of 500 cells/well. JQ1 (100 nM), OTX015 (100 nM), and i-BET-762 (250 nM) were added together with different concentrations of AZD2281 (0, 0.1, 1, or 10 μM). […] The cells were cultured for 1 to 2 weeks until clones were visible for counting.
Cells were plated in 6 well plates with at a density of 500 cells/well. BET inhibitors were added together with different concentrations of AZD2281 (0, 0.1, 1, or 10 μM), and the cells were cultured for 1 to 2 weeks until the colonies were visible for counting.

Structure (SMILES)	rH2Ax foci (rH2Ax positive cells) after IR (HeLa cells; 24 hours after IR)	RAD51 foci after IR (HeLa cells; different time points)	cell sensitivity to PARP inhibitor (OVCAR10 cells)
Cc1sc2c(c1C)C(c1ccc(Cl)cc1)=N[C@@H](CC(=O)OC(C)(C)C)c1nnc(C)n1-2 [JQ1, (S)-tert-butyl 2-(4-(4-chlorophenyl)-2,3,9-trimethyl-6H-thieno[3,2-f][1,2,4]triazolo[4,3-a][1,4]diazepin-6-yl)acetate]	sustained at high levels	affected RAD51 in a similar manner	affect cell sensitivity to PARP inhibitor
Cc1sc2c(c1C)C(c1ccc(Cl)cc1)=N[C@@H](CC(=O)Nc1ccc(O)cc1)c1nnc(C)n1-2 [OTX015, (6S)-4-(4-chlorophenyl)-N-(4-hydroxyphenyl)-2,3,9-trimethyl-6H-thieno[3,2-f][1,2,4]triazolo[4,3-a][1,4]diazepine-6-acetamide]	–	–	affect cell sensitivity to PARP inhibitor
CCNC(=O)C[C@@H]1N=C(c2ccc(Cl)cc2)c2cc(OC)ccc2-n2c(C)nnc21 [i-BET-762, (S)-2-(6-(4-chlorophenyl)-8-methoxy-1-methyl-4H-benzo[f][1,2,4]triazolo[4,3-a][1,4]diazepin-4-yl)-N-ethylacetamide]	–	–	affect cell sensitivity to PARP inhibitor
